US5215916A, “Super glucocorticoid receptors: receptors with increased affinity and specificity for glucocorticoid steriods” (priority 1991, dated 1993)

Target: T1, Wild type glucocorticoid receptor (Rattus norvegicus, UniProt P06536)
T1 construct: Thus the full length receptor was removed from the VARO vector with BamHI and inserted into the SVL vector; expressed in transfected cells; host or cells: COS-7 (cytosol)
T1 sequence (P06536 1-795): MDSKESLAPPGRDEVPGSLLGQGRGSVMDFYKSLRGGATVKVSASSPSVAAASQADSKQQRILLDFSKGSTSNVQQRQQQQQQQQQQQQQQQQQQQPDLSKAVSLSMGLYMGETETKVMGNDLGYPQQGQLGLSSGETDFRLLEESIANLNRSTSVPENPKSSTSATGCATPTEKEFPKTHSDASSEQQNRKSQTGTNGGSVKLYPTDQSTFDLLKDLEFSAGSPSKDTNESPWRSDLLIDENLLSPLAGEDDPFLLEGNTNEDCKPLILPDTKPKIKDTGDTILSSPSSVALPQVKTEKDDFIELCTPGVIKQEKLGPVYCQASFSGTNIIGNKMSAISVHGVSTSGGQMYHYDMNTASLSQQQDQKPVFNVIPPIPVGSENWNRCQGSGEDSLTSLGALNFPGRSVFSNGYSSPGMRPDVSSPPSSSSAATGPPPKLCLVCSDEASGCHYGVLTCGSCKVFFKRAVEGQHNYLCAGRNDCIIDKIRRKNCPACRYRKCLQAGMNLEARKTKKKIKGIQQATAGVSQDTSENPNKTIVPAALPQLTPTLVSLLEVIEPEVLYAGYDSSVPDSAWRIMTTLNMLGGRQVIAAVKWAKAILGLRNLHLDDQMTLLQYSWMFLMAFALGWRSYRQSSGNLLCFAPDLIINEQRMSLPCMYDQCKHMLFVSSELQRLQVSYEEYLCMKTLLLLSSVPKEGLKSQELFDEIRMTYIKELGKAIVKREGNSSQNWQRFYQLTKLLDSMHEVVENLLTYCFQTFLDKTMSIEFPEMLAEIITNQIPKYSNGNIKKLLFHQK
Assay: Competition binding assay with [3H]Dex, COS-7 cytosol, wild type receptor
Description: Monolayer cultures of COS-7 cells were grown in DMEM (Gibco) supplemented with 5% fetal bovine serum (FBS) (Biofluids) at 37° C. in a 5% CO2 incubator. Standard calcium phosphate transfection methods were used to introduce the wild type and mutant receptor expression vectors (pSVL) into COS-7 cells (100 mm plates [Costar] at a cell density of about 10^6 /plate were each treated with 10 μg of plasmid DNA). After ~16 hrs of incubation at 37° C. in a 5% CO2 incubator, the excess calcium phosphate and precipitate were removed by washing with phosphate buffered saline (PBS). […]
COS-7 cell cytosol containing the steroid-free receptors was prepared by cell lysis at -80° C. and centrifugation at 15,000 ×g and labeled as described for HTC cells (S. S. Simons and P. A. Miller, Biochem 23:6876-6882 (1984)). […] The specifically bound [^3 H]Dex was determined by first adding a 10% dextran-coated charcoal solution (added volume =20% of reaction solution volume) to remove free steroid and then subtracting the nonspecific binding seen in the presence of excess nonradioactive Dex. […]
The specificity of steroid binding was determined by Rodbard correction (Rodbard, 1973) of the data from a competition binding assay (S. S. Simons et al., Biochem. Biophys. Res. Comm. 86:793-800 (1979); Miller and Simons, 1988). […]

Row | Structure (SMILES) | Relative Ka of Steroid Binding to Receptor
1 | C[C@]12CC[C@@H]3c4ccc(O)cc4CC[C@H]3[C@@H]1CC[C@@H]2O [17β-Estradiol, 17β-estradiol] | 0.029 ± 0.006
2 | CC#C[C@]1(O)CC[C@H]2[C@@H]3CCC4=CC(=O)CCC4=C3[C@@H](c3ccc(N(C)C)cc3)C[C@@]21C [RU486] | 3.4 ± 1.2
